Laboratory results as given in US20100028463A1, “EXTRACT OF STEWARTIA KOREANA AND USE THEREOF” (priority 2006, published 2010).

Tested on: human umbilical vein endothelial cells (HUVEC)
Assay: Migration of endothelial cells, Boyden chamber method
Assay type: cell-based
Settings: positive control, 10 ng/mL VEGF, cultured 2 hours
Description: 0.1% gelatin was applied on a polycarbonate membrane (Costar, USA) for 10 minutes and dried at room temperature for 1 hour. 30 μL of human umbilical vein endothelial cells (HUVEC, 1×10^6 cells/mL) was put in a lower chamber of a trans-wells (Costar, USA), covered with the dried polycarbonate membrane, and an upper chamber was overlaid, followed by fixing by a screw. The chamber was turned over so that the cells could be attached to the membrane and cultured at 37° C. in a CO2 incubator for 2 hours.
50 μL of Stewartia koreana extract according to the present invention was added to the upper chamber and cultured for 2 hours. The polycarbonate membrane was died using the diff-quick staining agent and the migrated endothelial cells were counted through the polycarbonate membrane using a microscope (Table 1). Each dry extract powder of Stewartia koreana otained in Example were dissolved in water in an amount of 100 μg/mL. The negative control was water and the positive control was 10 ng/mL of VEGF (vascular endothelialgrowth factor, Sigma).
The polycarbonate membrane was stained with diff-quick staining agent and the number of the endothelial cells which had migrated through the polycarbonate membrane was then counted using a microscope (FIG. 1). […] The dry powder of the ethanol extract of Stewartia koreana and compound Madecassol™ were added to water in an amount of 12.5 to 100 μg/mL.

Substance: VEGF
- Migrated endothelial cells: 75 ± 0.41
